Data reported in patent US11053204B2, “Pyrimidinyloxy benzene derivatives as herbicides” (FMC Corporation, priority 2015, dated 2021).

Tests used:
Format in all cases: in vivo
rice (Oryza sativa) = assay: Test C flooded paddy test, plant response rating; conditions: flood, scale 0 to 100
[1] = system: sedge, umbrella (small-flower umbrella sedge Cyperus difformis); assay: Test C flooded paddy test, plant response rating; conditions: flood, scale 0 to 100
[2] = system: ducksalad (Heteranthera limosa); assay: Test C flooded paddy test, plant response rating; conditions: flood, scale 0 to 100
[3] = system: barnyardgrass (Echinochloa crus-galli); assay: Test C flooded paddy test, plant response rating; conditions: flood, scale 0 to 100
[4] = system: nightshade (eastern black nightshade, Solanum ptycanthum); assay: Test C preemergence, plant response rating

C=C(Br)COC(=O)c1c(Br)cccc1Oc1ncc(Cl)cn1 [Compound 61]
Rice plant response rating (rice (Oryza sativa); 31 g ai/ha): 20
Rice plant response rating (rice (Oryza sativa); 62 g ai/ha): 20
Rice plant response rating (rice (Oryza sativa); 125 g ai/ha): 20
Rice plant response rating (rice (Oryza sativa); 250 g ai/ha): 20
Sedge, Umbrella plant response rating ([1]; 31 g ai/ha): 80
Sedge, Umbrella plant response rating ([1]; 62 g ai/ha): 80
Sedge, Umbrella plant response rating ([1]; 125 g ai/ha): 85
Sedge, Umbrella plant response rating ([1]; 250 g ai/ha): 85
Ducksalad plant response rating ([2]; 31 g ai/ha): 50
Ducksalad plant response rating ([2]; 62 g ai/ha): 75
Ducksalad plant response rating ([2]; 125 g ai/ha): 90
Ducksalad plant response rating ([2]; 250 g ai/ha): 90
Barnyardgrass plant response rating ([3]; 31 g ai/ha): 0
Barnyardgrass plant response rating ([3]; 62 g ai/ha): 0
Barnyardgrass plant response rating ([3]; 125 g ai/ha): 20
Barnyardgrass plant response rating ([3]; 250 g ai/ha): 40
Plant response rating, Nightshade ([4]; 16 g ai/ha, scale 0 to 100): 60
Plant response rating, Nightshade ([4]; 31 g ai/ha, scale 0 to 100): 60
Plant response rating, Nightshade ([4]; 62 g ai/ha, scale 0 to 100): 50
Plant response rating, Nightshade ([4]; 125 g ai/ha, scale of 0 to 100): 75
